US5594135A, “Tricyclic DNA gyrase inhibitors” (Hoffmann-La Roche Inc., priority 1994, dated 1997)
Converted amounts (≈) assume the structure as drawn.

Key:
DNA gyrase = target: T1, DNA gyrase (Escherichia coli, UniProt P0AES4+P0AES6); test: Inhibition of DNA gyrase activity (DNA gyrase supercoiling assay, relaxed pUC18 plasmid as substrate); format: biochemical, E. coli H560
T1 construct: supercoiling of relaxed pUC18
Method: A. Inhibition of DNA gyrase activity
The inhibition of DNA gyrase activity was measured using a DNA gyrase supercoiling assay according to R. Otter & N. Cozzarelli: Methods in Enzymology, Vol. 100, pp 171-180 (1983). DNA gyrase was isolated from E. coli H560, and relaxed pUC18 plasmid was used as substrate. The activities as regards inhibition of DNA gyrase activity, expressed as maximum non-effective concentration of the test compound (MNC in μg/ml) are compiled in the following Table 1: […]

E. coli B = test: Antibacterial activity in vitro (agar dilution); format: cell-based; conditions: Escherichia coli, agar dilution (MuellerHinton agar), inoculum 10^4 CFU/spot, read-out: minimum inhibitory concentration (MIC)
P. aeruginosa 799/61 = test: Antibacterial activity in vitro (agar dilution); format: cell-based; conditions: Pseudomonas aeruginosa, agar dilution (MuellerHinton agar), inoculum 10^4 CFU/spot, read-out: minimum inhibitory concentration (MIC)
S. aureus 25923 = test: Antibacterial activity in vitro (agar dilution); format: cell-based; conditions: Staphylococcus aureus, agar dilution (MuellerHinton agar), inoculum 10^4 CFU/spot, read-out: minimum inhibitory concentration (MIC)
S. aureus Smith = test: Antibacterial activity in vitro (agar dilution); format: cell-based; conditions: Staphylococcus aureus, agar dilution (MuellerHinton agar), inoculum 10^4 CFU/spot, read-out: minimum inhibitory concentration (MIC)
S. epidermidis 16-2 = test: Antibacterial activity in vitro (agar dilution); format: cell-based; conditions: Staphylococcus epidermidis, 162, agar dilution (MuellerHinton agar), inoculum 10^4 CFU/spot, read-out: minimum inhibitory concentration (MIC)
S. pyogenes 15 = test: Antibacterial activity in vitro (agar dilution); format: cell-based; conditions: Streptococcus pyogenes, agar dilution (MuellerHinton agar), inoculum 10^4 CFU/spot, read-out: minimum inhibitory concentration (MIC)
S. faecalis 6 = test: Antibacterial activity in vitro (agar dilution); format: cell-based; conditions: Enterococcus faecalis, agar dilution (MuellerHinton agar), inoculum 10^4 CFU/spot, read-out: minimum inhibitory concentration (MIC)

T1 sequence (P0AES4 whole entry, one chain of several): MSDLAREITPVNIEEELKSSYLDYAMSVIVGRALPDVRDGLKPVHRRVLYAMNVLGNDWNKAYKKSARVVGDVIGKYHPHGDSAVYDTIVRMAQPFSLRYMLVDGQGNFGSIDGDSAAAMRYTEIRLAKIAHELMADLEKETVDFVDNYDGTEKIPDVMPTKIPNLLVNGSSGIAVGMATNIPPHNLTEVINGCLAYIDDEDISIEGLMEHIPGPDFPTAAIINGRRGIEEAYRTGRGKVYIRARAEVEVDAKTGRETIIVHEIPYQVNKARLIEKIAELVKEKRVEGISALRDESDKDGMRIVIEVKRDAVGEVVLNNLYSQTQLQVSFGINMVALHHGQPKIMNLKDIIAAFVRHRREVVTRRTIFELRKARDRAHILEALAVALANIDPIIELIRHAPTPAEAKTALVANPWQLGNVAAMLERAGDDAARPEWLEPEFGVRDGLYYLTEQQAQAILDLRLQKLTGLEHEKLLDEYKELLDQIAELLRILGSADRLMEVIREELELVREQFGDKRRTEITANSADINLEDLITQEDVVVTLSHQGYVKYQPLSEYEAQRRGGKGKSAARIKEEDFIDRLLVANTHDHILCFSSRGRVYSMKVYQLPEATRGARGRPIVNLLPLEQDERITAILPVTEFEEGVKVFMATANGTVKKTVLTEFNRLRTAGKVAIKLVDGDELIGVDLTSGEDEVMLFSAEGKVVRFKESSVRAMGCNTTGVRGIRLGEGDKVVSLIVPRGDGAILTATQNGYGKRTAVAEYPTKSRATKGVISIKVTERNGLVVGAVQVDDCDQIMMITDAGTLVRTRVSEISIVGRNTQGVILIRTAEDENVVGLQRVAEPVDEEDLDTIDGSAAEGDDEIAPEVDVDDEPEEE

Row | SMILES | maximum non-effective concentration of the test compound (MNC) (DNA gyrase) [µg/mL] | MIC (E. coli B) [µg/mL] | MIC (P. aeruginosa 799/61) [µg/mL] | MIC (S. aureus 25923) [µg/mL] | MIC (S. aureus Smith) [µg/mL] | MIC (S. epidermidis 16-2) [µg/mL] | MIC (S. pyogenes 15) [µg/mL] | MIC (S. faecalis 6) [µg/mL]
1 | COc1cc(O)c2c(c1C)C(=O)OCCCCC(=S)N[C@H](C(N)=O)CSC2 [Example 69, (R)-16-hydroxy-14-methoxy-13-methyl-12-oxo-6-thioxo-1,3,4,5,6,7,8,9,10,12-decahydro-11,2,5-benzoxathiaazacyclotetradecine-4-carboxylic acid amide] | 0.04 | > 64 | > 64 | 4 (≈ 9.7 µM) | 2 (≈ 4.85 µM) | 0.25 (≈ 0.606 µM) | 2 (≈ 4.85 µM) | 2 (≈ 4.85 µM)
2 | COC(=O)c1c(Br)c(OC)cc(O)c1CSC[C@H](NC(C)=S)c1nc(C)no1 [Example 71, (R)-2-bromo-5-hydroxy-3-methoxy-6-[2-(3-methyl-1,2,4-oxadiazol-5-yl)-2-thioacetylamino-ethylsulfanylmethyl]-benzoic acid methyl ester] | 0.5 | > 64 | 64 (≈ 131 µM) | 2 (≈ 4.08 µM) | 1 (≈ 2.04 µM) | 0.5 (≈ 1.02 µM) | 4 (≈ 8.16 µM) | 4 (≈ 8.16 µM)
3 | COC(=O)c1c(Cl)c(OC)cc(O)c1CSC[C@H](NC(C)=S)c1nc(C)no1 [Example 92, (R)-2-chloro-5-hydroxy-3-methoxy-6-[2-(3-methyl-1,2,4-oxadiazol-5-yl)-2-thioacetylamino-ethylsulfanylmethyl]-benzoic acid methyl ester] | 0.04 | > 64 | 64 (≈ 144 µM) | 4 (≈ 8.97 µM) | 2 (≈ 4.48 µM) | 1 (≈ 2.24 µM) | 8 (≈ 17.9 µM) | 8 (≈ 17.9 µM)
4 | COc1cc(O)c(CSC[C@H](NC(C)=O)c2nc(C)no2)c(C#N)c1C [Example 97, (R)-N-[2-(2-cyano-6-hydroxy-4-methoxy-3-methyl-benzylsulfanyl]-1-(3-methyl-1,2,4-oxadiazol-5-yl)-ethyl]-acetamide] | 0.4 | 64 (≈ 170 µM) | 64 (≈ 170 µM) | 16 (≈ 42.5 µM) | 8 (≈ 21.3 µM) | 1 (≈ 2.66 µM) | 16 (≈ 42.5 µM) | 16 (≈ 42.5 µM)
